Source: US10633379B2, “Bromodomain inhibitors” (AbbVie Inc., priority 2016, dated 2020)

Experiments:
BRD4 (BDII_E352-M457) = BRD4 (BDII_E352-M457) (Homo sapiens (Human), UniProt O60885); assay: TR-FRET bromodomain binding assay, BRD4 BDII; settings: mean Ki, calculated from IC50, probe Kd and probe concentration
Protocol: (§1) A time-resolved fluorescence resonance energy transfer (TR-FRET) assay was used to determine the affinities of compounds of the Examples listed in Table 1 for each bromodomain of BRD4. His-tagged first (BDI: amino acids K57-E168) and second (BDII: amino acids E352-M457) bromodomains of BRD4 were expressed and purified. An Alexa647-labeled BET-inhibitor was used as the fluorescent probe in the assay.
(§2) Compound dilution series were prepared in DMSO via an approximately 3-fold serial dilution. Compound dilutions were added directly into white, low-volume assay plates (Perkin Elmer Proxiplate 384 Plus#6008280) using a Labcyte Echo in conjunction with Labcyte Access and Thermo Multidrop CombinL robotics. Compounds were then suspended in eight microliters (μL) of assay buffer (20 mM Sodium Phosphate, pH 6.0, 50 mM NaCl, 1 mM Ethylenediaminetetraacetic acid disodium salt dihydrate, 0.01% Triton X-100, 1 mM DL-Dithiothreitol) containing His-tagged bromodomain, Europium-conjugated anti-His antibody (Invitrogen PV5596) and Alexa-647-conjugated probe.
(§3) The final concentration of 1× assay mixture contained 2% DMSO, 12 nM His tagged BRD4 (BDI_K57-E168) and 100 nM probe or 4 nM His tagged BRD4 (BDII_E352-M457) and 30 nM probe, and 1 nM Europium-conjugated anti-His-tag antibody, and compound concentrations in the range of: 49.02 μM-0.61 nM or 0.98 μM-0.15 nM.
(§4) After a one-hour equilibration at room temperature, TR-FRET ratios were determined using an Envision multilabel plate reader (Ex 340, Em 495/520).
(§5) TR-FRET data were normalized to the means of 24 no-compound controls (“high”) and 8 controls containing 1 μM un-labeled probe (“low”). Percent inhibition was plotted as a function of compound concentration and the data were fit with the 4 parameter logistic equation to obtain IC50s. Inhibition constants (Ki) were calculated from the IC50s, probe Kd and probe concentration.

BRD4 (BDI_K57-E168) = BRD4 (BDI_K57-E168) (Homo sapiens (Human), UniProt O60885); assay: TR-FRET bromodomain binding assay, BRD4 BDI; settings: mean Ki, calculated from IC50, probe Kd and probe concentration
Protocol: as §1, §2, §3, §4, §5

| SMILES | Ki (BRD4 (BDII_E352-M457)) [nM] | Ki (BRD4 (BDI_K57-E168)) [nM] |
| --- | --- | --- |
| CCNC(=O)c1cc2c(-c3cc([C@](C)(O)CO)ccc3Oc3c(C)cccc3C)cn(C)c(=O)c2[nH]1 (single isomer, unassigned) [Example 69, 4-{5-[(25)-1,2-dihydroxypropan-2-yl]-2-(2,6-dimethylphenoxy)phenyl}-N-ethyl-6-methyl-7-oxo-6,7-dihydro-1H-pyrrolo[2,3-c]pyridine-2-carboxamide] | 2.3 | 499 |
| Cn1cc(-c2cc(CO)ccc2Oc2ccccc2)c2cc[nH]c2c1=O [Compound Z, 4-[5-(hydroxymethyl)-2-phenoxyphenyl]-6-methyl-1,6-dihydro-7H-pyrrolo[2,3-c]pyridin-7-one, reference compound] | 15.5 | 69.9 |
| CCNC(=O)c1cc2c(-c3cc(C(O)(CC)CC)cnc3Oc3c(C)cccc3C)cn(C)c(=O)c2[nH]1 [Example 2, 4-[2-(2,6-dimethylphenoxy)-5-(3-hydroxypentan-3-yl)pyridin-3-yl]-N-ethyl-6-methyl-7-oxo-6,7-dihydro-1H-pyrrolo[2,3-c]pyridine-2-carboxamide] | 3 | 220 |
| CCNC(=O)c1cc2c(-c3cc(C4(O)CC=CC4)cnc3Oc3c(C)cccc3C)cn(C)c(=O)c2[nH]1 [Example 4, 4-[2-(2,6-dimethylphenoxy)-5-(1-hydroxycyclopent-3-en-1-yl)pyridin-3-yl]-N-ethyl-6-methyl-7-oxo-6,7-dihydro-1H-pyrrolo[2,3-c]pyridine-2-carboxamide] | 3.1 | 215 |
| CCNC(=O)c1cc2c(-c3cc(C(O)(CC)c4ccccc4)cnc3Oc3c(C)cccc3C)cn(C)c(=O)c2[nH]1 (stereo not shown) [Example 7, 4-[2-(2,6-dimethylphenoxy)-5-(1-hydroxy-1-phenylpropyl)pyridin-3-yl]-N-ethyl-6-methyl-7-oxo-6,7-dihydro-1H-pyrrolo[2,3-c]pyridine-2-carboxamide] | 4.1 | 632 |
| CCNC(=O)c1cc2c(-c3cc(C(O)(CC)c4ccc(F)cc4)cnc3Oc3c(C)cccc3C)cn(C)c(=O)c2[nH]1 (stereo not shown) [Example 9, 4-{2-(2,6-dimethylphenoxy)-5-[1-(4-fluorophenyl)-1-hydroxypropyl]pyridin-3-yl}-N-ethyl-6-methyl-7-oxo-6,7-dihydro-1H-pyrrolo[2,3-c]pyridine-2-carboxamide] | 3.8 | 601 |
| CCNC(=O)c1cc2c(-c3cc(C(O)(CC)CC(C)C)cnc3Oc3c(C)cccc3C)cn(C)c(=O)c2[nH]1 (stereo not shown) [Example 10, 4-[2-(2,6-dimethylphenoxy)-5-(3-hydroxy-5-methylhexan-3-yl)pyridin-3-yl]-N-ethyl-6-methyl-7-oxo-6,7-dihydro-1H-pyrrolo[2,3-c]pyridine-2-carboxamide] | 5.4 | 715 |
| CCNC(=O)c1cc2c(-c3cc(C(O)(CC)C4CCCC4)cnc3Oc3c(C)cccc3C)cn(C)c(=O)c2[nH]1 (stereo not shown) [Example 11, 4-[5-(1-cyclopentyl-1-hydroxypropyl)-2-(2,6-dimethylphenoxy)pyridin-3-yl]-N-ethyl-6-methyl-7-oxo-6,7-dihydro-1H-pyrrolo[2,3-c]pyridine-2-carboxamide] | 2.6 | 170 |
| CCNC(=O)c1cc2c(-c3cc(C(O)(CC)CCc4ccccc4)cnc3Oc3c(C)cccc3C)cn(C)c(=O)c2[nH]1 (stereo not shown) [Example 14, 4-[2-(2,6-dimethylphenoxy)-5-(3-hydroxy-1-phenylpentan-3-yl)pyridin-3-yl]-N-ethyl-6-methyl-7-oxo-6,7-dihydro-1H-pyrrolo[2,3-c]pyridine-2-carboxamide] | 2.3 | 965 |
| CCNC(=O)c1cc2c(-c3cc(C(O)(CC)Cc4ccc(F)cc4)cnc3Oc3c(C)cccc3C)cn(C)c(=O)c2[nH]1 (stereo not shown) [Example 15, 4-{2-(2,6-dimethylphenoxy)-5-[1-(4-fluorophenyl)-2-hydroxybutan-2-yl]pyridin-3-yl}-N-ethyl-6-methyl-7-oxo-6,7-dihydro-1H-pyrrolo[2,3-c]pyridine-2-carboxamide] | 26.5 | 1840 |
| CCNC(=O)c1cc2c(-c3cc(C(C)(O)c4ccccc4)cnc3Oc3c(C)cccc3C)cn(C)c(=O)c2[nH]1 (stereo not shown) [Example 16, 4-[2-(2,6-dimethylphenoxy)-5-(1-hydroxy-1-phenylethyl)pyridin-3-yl]-N-ethyl-6-methyl-7-oxo-6,7-dihydro-1H-pyrrolo[2,3-c]pyridine-2-carboxamide] | 2.3 | 333 |
| CCNC(=O)c1cc2c(-c3cc(C(C)(O)c4ccc(F)cc4)cnc3Oc3c(C)cccc3C)cn(C)c(=O)c2[nH]1 (stereo not shown) [Example 17, 4-{2-(2,6-dimethylphenoxy)-5-[1-(4-fluorophenyl)-1-hydroxyethyl]pyridin-3-yl}-N-ethyl-6-methyl-7-oxo-6,7-dihydro-1H-pyrrolo[2,3-c]pyridine-2-carboxamide] | 3 | 467 |
| CCNC(=O)c1cc2c(-c3cc(C(C)(O)CC(C)C)cnc3Oc3c(C)cccc3C)cn(C)c(=O)c2[nH]1 (stereo not shown) [Example 18, 4-[2-(2,6-dimethylphenoxy)-5-(2-hydroxy-4-methylpentan-2-yl)pyridin-3-yl]-N-ethyl-6-methyl-7-oxo-6,7-dihydro-1H-pyrrolo[2,3-c]pyridine-2-carboxamide] | 3.8 | 449 |
| CCNC(=O)c1cc2c(-c3cc(C(C)(O)C(C)C)cnc3Oc3c(C)cccc3C)cn(C)c(=O)c2[nH]1 (stereo not shown) [Example 19, 4-[2-(2,6-dimethylphenoxy)-5-(2-hydroxy-3-methylbutan-2-yl)pyridin-3-yl]-N-ethyl-6-methyl-7-oxo-6,7-dihydro-1H-pyrrolo[2,3-c]pyridine-2-carboxamide] | 4 | 196 |

The remaining compounds from weak to strong by Ki (BRD4 (BDII_E352-M457)), led by results:

| Ki (BRD4 (BDII_E352-M457)) [nM] | Ki (BRD4 (BDI_K57-E168)) [nM] | SMILES |
| --- | --- | --- |
| 2.3 | 462 | CCNC(=O)c1cc2c(-c3cc(C(C)(C)O)cnc3Oc3c(C)cccc3C)cn(C)c(=O)c2[nH]1 [Example 1, 4-[2-(2,6-dimethylphenoxy)-5-(2-hydroxypropan-2-yl)pyridin-3-yl]-N-ethyl-6-methyl-7-oxo-6,7-dihydro-1H-pyrrolo[2,3-c]pyridine-2-carboxamide] |
| 2.3 | 273 | CCNC(=O)c1cc2c(-c3cc(C4(O)CCCC4)cnc3Oc3c(C)cccc3C)cn(C)c(=O)c2[nH]1 [Example 6, 4-[2-(2,6-dimethylphenoxy)-5-(1-hydroxycyclopentyl)pyridin-3-yl]-N-ethyl-6-methyl-7-oxo-6,7-dihydro-1H-pyrrolo[2,3-c]pyridine-2-carboxamide] |
| 2.3 | 359 | CCNC(=O)c1cc2c(-c3cc(C(C)(O)CC)cnc3Oc3c(C)cccc3C)cn(C)c(=O)c2[nH]1 (stereo not shown) [Example 8, 4-[2-(2,6-dimethylphenoxy)-5-(2-hydroxybutan-2-yl)pyridin-3-yl]-N-ethyl-6-methyl-7-oxo-6,7-dihydro-1H-pyrrolo[2,3-c]pyridine-2-carboxamide] |
| 2.2 | 341 | CCNC(=O)c1cc2c(-c3cc([C@@](C)(O)CO)ccc3Oc3c(C)cccc3C)cn(C)c(=O)c2[nH]1 (single isomer, unassigned) [Example 68] |
| 2 | 114 | CCNC(=O)c1cc2c(-c3cc(C(O)(CC)C(C)CC)cnc3Oc3c(C)cccc3C)cn(C)c(=O)c2[nH]1 (stereo not shown) [Example 13, 4-[2-(2,6-dimethylphenoxy)-5-(3-hydroxy-4-methylhexan-3-yl)pyridin-3-yl]-N-ethyl-6-methyl-7-oxo-6,7-dihydro-1H-pyrrolo[2,3-c]pyridine-2-carboxamide] |
| 1.9 | 97 | CCNC(=O)c1cc2c(-c3cc(C(O)(CC)C4CC4)cnc3Oc3c(C)cccc3C)cn(C)c(=O)c2[nH]1 (stereo not shown) [Example 12, 4-[5-(1-cyclopropyl-1-hydroxypropyl)-2-(2,6-dimethylphenoxy)pyridin-3-yl]-N-ethyl-6-methyl-7-oxo-6,7-dihydro-1H-pyrrolo[2,3-c]pyridine-2-carboxamide] |
| 1.6 | 187 | CCNC(=O)c1cc2c(-c3cc(C4(O)CC=CC4)ccc3Oc3c(C)cccc3C)cn(C)c(=O)c2[nH]1 [Example 5, 4-[2-(2,6-dimethylphenoxy)-5-(1-hydroxycyclopent-3-en-1-yl)phenyl]-N-ethyl-6-methyl-7-oxo-6,7-dihydro-1H-pyrrolo[2,3-c]pyridine-2-carboxamide] |
| 1.32 | 21.6 | CCNC(=O)c1cc2c(-c3cc(S(C)(=O)=O)ccc3Oc3ccc(F)cc3F)cn(C)c(=O)c2[nH]1 [Compound Y, 4-[2-(2,4-difluorophenoxy)-5-(methylsulfonyl)phenyl]-N-ethyl-6-methyl-7-oxo-6,7-dihydro-1H-pyrrolo[2,3-c]pyridine-2-carboxamide, reference compound] |
| 1.1 | 404 | CCNC(=O)c1cc2c(-c3cc(C(C)(C)O)ccc3Oc3c(C)cccc3C)cn(C)c(=O)c2[nH]1 [Example 3, 4-[2-(2,6-dimethylphenoxy)-5-(2-hydroxypropan-2-yl)phenyl]-N-ethyl-6-methyl-7-oxo-6,7-dihydro-1H-pyrrolo[2,3-c]pyridine-2-carboxamide] |
